Source: patent US12227500B2, “Substituted pyrrolo[2,3-b]pyridines for suppressing toxic endoplasmic reticulum stress” (THE TRUSTEES OF COLUMBIA UNIVERSITY IN THE CITY OF NEW YORK, priority 2018, dated 2025)
Where two headings read alike, the source gives them in different places.

Assays:
[1] = system: human ES motor neurons carrying the ALS-causing SOD1^A4V mutation; experiment: cells; format: cell-based; conditions: 72 h, 72 h; for EC50 / Emax: CPA 33 μM; for viability at 1 µM: CPA (33 μM) + compound (1 μM), read-out: Motor Neuron Survival, % untreated; for Emax: read-out: Emax (MN survival % untreated)
Protocol: Next, survival assays were performed with all the analogs at once to generate a low-variability dataset. All compounds were evaluated at concentrations ranging from 0.1-3.0 μM (five-point dilution) in three technical replicates and two biological replicates.

MLK1/MAP3K9 = target: T1, MLK1/MAP3K9 (Homo sapiens, UniProt P80192); experiment: Radiolabeled ATP kinase assay (Reaction Biology Corp.), MLK1; format: biochemical; conditions: [Cmpd] 0.1 μM, 10 μM ATP
T1 construct: purchased Reaction Biology Corp
T1 sequence (P80192 whole entry): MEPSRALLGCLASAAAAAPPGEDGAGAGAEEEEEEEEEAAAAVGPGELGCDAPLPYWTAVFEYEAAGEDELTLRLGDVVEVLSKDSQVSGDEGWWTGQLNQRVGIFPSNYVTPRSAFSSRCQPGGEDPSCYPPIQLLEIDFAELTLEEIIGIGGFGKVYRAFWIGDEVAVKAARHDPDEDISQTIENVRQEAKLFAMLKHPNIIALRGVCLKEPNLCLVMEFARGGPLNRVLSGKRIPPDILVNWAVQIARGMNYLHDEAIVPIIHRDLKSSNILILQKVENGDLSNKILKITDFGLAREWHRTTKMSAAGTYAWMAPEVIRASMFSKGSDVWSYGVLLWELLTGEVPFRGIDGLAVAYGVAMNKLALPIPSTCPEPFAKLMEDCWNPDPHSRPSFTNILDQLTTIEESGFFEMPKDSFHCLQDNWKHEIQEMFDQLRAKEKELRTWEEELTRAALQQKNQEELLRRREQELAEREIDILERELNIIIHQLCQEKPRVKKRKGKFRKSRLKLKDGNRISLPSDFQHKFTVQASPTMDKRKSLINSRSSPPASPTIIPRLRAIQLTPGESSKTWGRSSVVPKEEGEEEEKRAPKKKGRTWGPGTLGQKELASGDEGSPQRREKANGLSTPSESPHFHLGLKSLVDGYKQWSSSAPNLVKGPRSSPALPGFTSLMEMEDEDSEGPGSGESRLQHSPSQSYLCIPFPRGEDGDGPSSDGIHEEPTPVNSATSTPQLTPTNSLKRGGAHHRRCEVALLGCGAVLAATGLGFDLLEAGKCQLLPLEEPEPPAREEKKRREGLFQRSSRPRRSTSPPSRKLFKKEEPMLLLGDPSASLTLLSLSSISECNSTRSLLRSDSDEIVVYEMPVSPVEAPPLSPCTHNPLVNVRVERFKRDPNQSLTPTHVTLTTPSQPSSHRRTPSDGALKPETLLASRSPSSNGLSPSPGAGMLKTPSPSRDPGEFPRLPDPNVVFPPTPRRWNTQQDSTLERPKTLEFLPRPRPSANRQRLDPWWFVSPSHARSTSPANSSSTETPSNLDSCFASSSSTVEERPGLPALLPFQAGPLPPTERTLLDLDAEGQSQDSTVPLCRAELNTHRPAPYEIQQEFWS
Protocol: (§1) Meanwhile, the same analogs were analyzed in a radiolabeled ATP assay (10 μM ATP; Reaction Biology Corp.) to compare the extent to which they could inhibit the activity of HGK, MLK1, or MLK3 in a cell-free environment (Table S3 and S4).

MLK3/MAP3K11 = target: T2, MLK3/MAP3K11 (Homo sapiens, UniProt Q16584); experiment: Radiolabeled ATP kinase assay (Reaction Biology Corp.), MLK3; format: biochemical; conditions: [Cmpd] 0.1 μM; 10 μM ATP
T2 construct: purchased Reaction Biology Corp
T2 sequence (Q16584 whole entry): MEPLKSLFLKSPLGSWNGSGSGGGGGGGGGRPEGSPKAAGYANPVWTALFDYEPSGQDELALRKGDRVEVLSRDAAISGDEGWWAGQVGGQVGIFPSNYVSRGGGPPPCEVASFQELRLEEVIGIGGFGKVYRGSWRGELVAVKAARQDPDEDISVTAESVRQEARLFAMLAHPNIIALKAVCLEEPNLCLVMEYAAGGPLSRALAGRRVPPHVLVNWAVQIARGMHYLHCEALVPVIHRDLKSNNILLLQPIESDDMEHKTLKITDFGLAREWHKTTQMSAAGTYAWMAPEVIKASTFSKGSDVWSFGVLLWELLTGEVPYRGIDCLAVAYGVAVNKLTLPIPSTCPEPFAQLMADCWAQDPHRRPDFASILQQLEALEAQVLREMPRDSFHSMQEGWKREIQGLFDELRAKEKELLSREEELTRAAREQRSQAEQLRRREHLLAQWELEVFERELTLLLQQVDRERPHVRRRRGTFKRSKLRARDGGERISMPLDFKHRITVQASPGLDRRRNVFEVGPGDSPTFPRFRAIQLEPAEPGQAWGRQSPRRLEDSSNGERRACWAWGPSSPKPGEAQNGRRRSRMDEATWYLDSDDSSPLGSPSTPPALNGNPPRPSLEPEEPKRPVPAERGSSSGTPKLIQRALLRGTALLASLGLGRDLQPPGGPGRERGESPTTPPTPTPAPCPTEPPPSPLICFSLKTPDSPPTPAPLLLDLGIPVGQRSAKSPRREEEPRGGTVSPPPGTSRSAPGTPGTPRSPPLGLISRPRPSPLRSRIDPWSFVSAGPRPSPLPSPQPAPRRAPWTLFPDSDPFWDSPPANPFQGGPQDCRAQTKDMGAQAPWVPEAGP
Protocol: as §1

HGK/MAP4K4 = HGK/MAP4K4 (Homo sapiens, UniProt O95819); experiment: Radiolabeled ATP kinase assay (Reaction Biology Corp.), HGK; format: biochemical; parameters: purchased Reaction Biology Corp; conditions: 10 μM ATP, read-out: % Enzyme Activity (relative to DMSO controls), HGK/MAP4K4, Data 1; for remaining activity at 0.025 µM: [Cmpd] 0.025 μM; for remaining activity at 0.1 µM: [Cmpd] 0.1 μM
Chain of HGK/MAP4K4 (O95819 whole entry): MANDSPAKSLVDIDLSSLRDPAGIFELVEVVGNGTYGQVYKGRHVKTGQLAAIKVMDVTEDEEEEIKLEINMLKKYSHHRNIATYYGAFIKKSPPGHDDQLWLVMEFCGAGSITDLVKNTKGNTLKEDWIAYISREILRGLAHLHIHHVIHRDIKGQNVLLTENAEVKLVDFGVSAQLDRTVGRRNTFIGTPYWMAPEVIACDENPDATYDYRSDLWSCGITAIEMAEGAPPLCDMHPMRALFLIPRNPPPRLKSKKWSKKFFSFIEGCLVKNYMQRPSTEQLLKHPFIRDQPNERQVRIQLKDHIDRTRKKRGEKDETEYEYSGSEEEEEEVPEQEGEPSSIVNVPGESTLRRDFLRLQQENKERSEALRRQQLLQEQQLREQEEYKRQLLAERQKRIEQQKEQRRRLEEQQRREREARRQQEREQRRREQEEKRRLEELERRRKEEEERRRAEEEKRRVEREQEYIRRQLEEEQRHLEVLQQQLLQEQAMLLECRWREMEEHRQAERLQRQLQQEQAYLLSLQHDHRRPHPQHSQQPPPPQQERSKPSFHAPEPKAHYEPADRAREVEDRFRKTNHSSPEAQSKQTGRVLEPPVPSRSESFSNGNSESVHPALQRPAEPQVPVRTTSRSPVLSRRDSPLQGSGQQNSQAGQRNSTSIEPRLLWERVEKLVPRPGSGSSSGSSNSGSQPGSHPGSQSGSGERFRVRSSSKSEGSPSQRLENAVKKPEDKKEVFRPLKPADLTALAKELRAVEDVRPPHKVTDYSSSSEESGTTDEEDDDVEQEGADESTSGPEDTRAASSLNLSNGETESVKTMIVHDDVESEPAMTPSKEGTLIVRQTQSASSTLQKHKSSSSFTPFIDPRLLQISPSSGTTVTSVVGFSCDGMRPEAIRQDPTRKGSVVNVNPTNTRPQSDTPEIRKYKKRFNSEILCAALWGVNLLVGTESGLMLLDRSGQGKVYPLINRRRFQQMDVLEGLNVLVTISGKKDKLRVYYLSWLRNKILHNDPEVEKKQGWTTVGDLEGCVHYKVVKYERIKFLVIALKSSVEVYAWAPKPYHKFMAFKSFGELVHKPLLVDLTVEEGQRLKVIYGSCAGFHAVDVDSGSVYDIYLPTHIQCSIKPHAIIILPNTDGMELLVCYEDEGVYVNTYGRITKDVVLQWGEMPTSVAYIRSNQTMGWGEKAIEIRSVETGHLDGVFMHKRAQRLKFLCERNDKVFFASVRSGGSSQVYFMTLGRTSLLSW
Protocol: as §1

[2] = Homo sapiens, Neuron, read-out: EC50
[3] = read-out: % Enzyme Activity Remaining (relative to DMSO controls), MLK1/MAP3K9, Data 1
[4] = read-out: % Enzyme Activity Remaining (relative to DMSO controls), MLK1/MAP3K9, Data 2

SMILES | EC50 [1, 2] [nM] | viability at 1 µM ([1]; Homo sapiens, Neuron) [%] | Emax ([1]; Homo sapiens, Neuron) [%] | remaining activity at 0.1 µM (MLK1/MAP3K9; [3]) [%] | remaining activity at 0.1 µM (MLK1/MAP3K9; [4]) [%] | % Enzyme Activity Remaining (relative to DMSO controls), MLK3/MAP3K11, Data 1 (MLK3/MAP3K11) [%] | % Enzyme Activity Remaining (relative to DMSO controls), MLK3/MAP3K11, Data 2 (MLK3/MAP3K11) [%] | remaining activity at 0.025 µM (HGK/MAP4K4) [%] | remaining activity at 0.1 µM (HGK/MAP4K4) [%] | EC50 [1]
CN1CCN(Cc2ccc(-c3cnc4[nH]cc(-c5cccc(C(F)(F)F)c5)c4c3)cc2)CC1 [Compound 7ab, 5-(4-((4-Methylpiperazin-1-yl)methyl)phenyl)-3-(3-(trifluoromethyl)phenyl)-1H-pyrrolo[2,3-b]pyridine] | 1280 | 60.7 | 60.7 | 83.7 | 82.9 | 68.47 | 70.51 | 26.6 | 4.65 | 
CN1CCN(Cc2ccc(-c3cnc4[nH]cc(-c5ccccc5)c4c3)cc2)CC1 [Compound 7ac, 5-(4-((4-Methylpiperazin-1-yl)methyl)phenyl)-3-phenyl-1H-pyrrolo[2,3-b]pyridine] | 774 | 75.9 | 110 | 60.8 | 57.7 | 42.00 | 43.30 | 31.9 | 6.69 | 
CN1CCN(Cc2ccc(-c3cnc4[nH]cc(-c5ccc(Cl)cc5Cl)c4c3)cc2)CC1 [Compound 7ae, 3-(2,4-Dichlorophenyl)-5-(4-((4-methylpiperazin-1-yl)methyl)phenyl)-1H-pyrrolo[2,3-b]pyridine] | 533 | 32 | 32 | 92.5 | 91.8 | 84.17 | 86.93 | 67.9 | 42.7 | 
Cc1ccc(C)c(-c2c[nH]c3ncc(-c4ccc(CN5CCN(C)CC5)cc4)cc23)c1 [Compound 7af, 3-(2,5-Dimethylphenyl)-5-(4-((4-methylpiperazin-1-yl)methyl)phenyl)-1H-pyrrolo[2,3-b]pyridine] | 1340 | 38.6 | 67.5 | 92.6 | 90.6 | 75.32 | 81.31 | 69 | 38.7 | 
CN1CCN(Cc2ccc(-c3cnc4[nH]cc(-c5ccc6cnn(C)c6c5)c4c3)cc2)CC1 [Compound 7ag, 1-Methyl-6-(5-(4-((4-methylpiperazin-1-yl)methyl)phenyl)-1H-pyrrolo[2,3-b]pyridin-3-yl)-1H-indazole] | 418 | 73.3 | 88 | 50.9 | 50 | 54.67 | 52.80 | 32.5 | 7.91 | 
CNC(=O)Nc1cccc(-c2c[nH]c3ncc(-c4ccc(CN5CCN(C)CC5)cc4)cc23)c1 [Compound 7ak, 1-Methyl-3-(3-(5-(4-((4-methylpiperazin-1-yl)methyl)phenyl)-1H-pyrrolo[2,3-b]pyridin-3-yl)phenyl)urea] | 650 | 78.5 | 112 | 34.2 | 32.8 | 48.06 | 48.02 | 41.7 | 14.2 | 
COC(=O)Nc1cccc(-c2c[nH]c3ncc(-c4ccc(CN5CCN(C)CC5)cc4)cc23)c1 [Compound 7al, Methyl (3-(5-(4-((4-methylpiperazin-1-yl)methyl)phenyl)-1H-pyrrolo[2,3-b]pyridin-3-yl)phenyl)carbamate] | 670 |  | 113 | 33.4 | 32.7 | 32.96 | 30.90 | 33.8 | 6.76 | 
CNC(=O)Nc1ccc(-c2c[nH]c3ncc(-c4ccc(CN5CCN(C)CC5)cc4)cc23)cc1 [Compound 7am, 1-Methyl-3-(4-(5-(4-((4-methylpiperazin-1-yl)methyl)phenyl)-1H-pyrrolo[2,3-b]pyridin-3-yl)phenyl)urea] | 948 | 80 | 122 | 51 | 51.2 | 49.77 | 46.17 | 56 | 17.7 | 
COC(=O)Nc1ccc(-c2c[nH]c3ncc(-c4ccc(CN5CCN(C)CC5)cc4)cc23)cc1 [Compound 7an, Methyl (4-(5-(4-((4-methylpiperazin-1-yl)methyl)phenyl)-1H-pyrrolo[2,3-b]pyridin-3-yl)phenyl)carbamate] | 534 | 75 | 100 | 68.7 | 65.4 | 65.74 | 63.06 | 39.9 | 10.2 | 
COc1ccc(COc2ccc(-c3c[nH]c4ncc(-c5ccc(CN6CCN(C)CC6)cc5)cc34)cc2)cc1 [Compound 7ao, 3-(4-((4-Methoxybenzyl)oxy)phenyl)-5-(4-((4-methylpiperazin-1-yl)methyl)phenyl)-1H-pyrrolo[2,3-b]pyridine] |  | 95.9 | 95.9 | 49 | 47.1 | 35.75 | 32.77 | 21.3 | 1.98 | Ambiguous
CN1CCN(Cc2ccc(-c3cnc4[nH]cc(-c5cccc(OCc6ccccc6)c5)c4c3)cc2)CC1 [Compound 7ar, 3-(3-(Benzyloxy)phenyl)-5-(4-((4-methylpiperazin-1-yl)methyl)phenyl)-1H-pyrrolo[2,3-b]pyridine] | 583 | 37.4 | 37.4 | 70.1 | 68 | 44.17 | 45.09 | 55.5 | 27.4 | 
CN1CCN(Cc2ccc(-c3cnc4[nH]cc(-c5ccc(F)c(C(=O)NCc6ccco6)c5)c4c3)cc2)CC1 [Compound 7av, 2-Fluoro-N-(furan-2-ylmethyl)-5-(5-(4-((4-methylpiperazin-1-yl)methyl)phenyl)-1H-pyrrolo[2,3-b]pyridin-3-yl)benzamide] | 1050 | 34.5 | 53.5 | 86 | 84.2 | 84.24 | 86.99 | 88.8 | 51.2 | 
